In US8637484B2, “Modulation of growth hormone receptor expression and insulin-like growth factor expression” (Antisense Therapeutic Limited, priority 2003, dated 2014):
In the oligonucleotide strings, read from the 5' end, every base follows the letter of its sugar. An asterisk marks phosphorothioate; unmarked linkages are phosphodiester. Other units and linkages are bracketed, terminal groups are in braces. A string of capitals states the bases alone. e = 2'-O-(2-methoxyethyl) (MOE); [5mC] = 5-methylcytosine; d = 2'-deoxy (DNA)

Legend:
[1] = test system: mouse growth hormone receptor mRNA; experiment: Inhibition of mouse growth hormone receptor mRNA levels in b.END cells, quantitative real-time PCR; assay type: cell-based; settings: dose-response studies
[2] = test system: serum insulin-like growth factor-I; experiment: Serum IGF-I by radioimmunoassay, 1 week pilot study in Balb/C(a) mice; assay type: in vivo, mouse; settings: for % IGF-I reduction: 30 mg/kg once every 2 days, serum IGF-I at day 7 compared to saline control at day 7
Experimental: Forty male Balb/C(a) mice weighing 9 to 10 g were placed into cages, 4 animals per cage, and allowed to assimilate into their environment with new littermates ˜1 week prior (Day −7) to the commencement of 1 week study. Mice of this age would be at their maximum growth rate. Their body weights were measured and recorded every second day during this period. When mice weighed 11 g (day −2), a blood sample was collected under anesthesia as described below, and a serum IGF-I assay was performed to determine pre-treatment values and to aid in the assigning of mice to treatment groups in order to reduce animal variability. To obtain the blood sample, the animals were anaesthetized with pentobarbital (50 mg/kg i.p.) and non-fasting blood samples collected exactly 5 minutes later from the retrobulbar plexus through heparinized capillary tubes under light ether anesthesia. The 40 animals were placed into five groups with each group having a similar weight average and similar IGF-I average concentration for the trial.
Animals (n=8/group) were designated to the following five treatment groups:
Saline, antisense, mismatch control and octreotide samples were prepared, and coded for blinding. Animals were given a subcutaneous dose of saline every second day, and mismatch control or antisense with administration on days 0, 2, 4, 6. Animals were given twice daily doses of 25 μg octreotide. Animals were housed 4 per cage, for the duration of one week. They had access to a pre-determined quantity of standard mouse food and water at all times throughout the experiment. They were housed in a quiet, temperature- and humidity-maintained environment for the entirety of the study. At day 0 and before treatment on each day or second day, the animals had their body weight and food intake measured, enabling the correct dose of agent to be administered. The animals were monitored closely for any changes in fur, skin, eye, locomotion or other changes in behavior. No problems were observed. Every second day from day −7 to day 7 body weight and food intake were measured.
On day 7, one day after the last dose of antisense, and/or after the last octreotide dose, the animals were anaesthetized with pentobarbital (50 mg/kg i.p.) and non-fasting blood samples collected exactly 5 minutes later from the retrobulbar plexus through heparinized capillary tubes under light ether anesthesia (as on day −7 and 0).
At day −2 and day 7, serum IGF-I measurement was done by radioimmunoassay. Serum IGF-I level is the most widely used measure of growth hormone biological activity in human therapy. It is used to measure the efficacy of growth hormone antagonist treatments like Trovert, which block cells' responsiveness to excess growth hormone, and dopamine agonists and octreotide somatostatin […] drugs that block growth hormone secretion from the pituitary.

serum IGF-I = experiment: Serum IGF-I, additional 1 week study in mice; assay type: in vivo, mouse; settings: 50 mg/kg once every 2 days, day 7
Experimental: Male Balb/C(a) mice were prepared and grouped for analysis as in Example 18 above.
Animals (n=10/group) were designated to the following treatment groups:
Animals were treated and serum IGF-I levels were measured as in Example 18 above. Briefly, for the one-week study, mice were given a subcutaneous dose of saline every second day, and mismatch control or antisense with administration on days 0, 2, 4, 6. On day 7, the animals were anaesthetized with pentobarbital and non-fasting blood samples collected exactly 5 minutes later from the retrobulbar plexus through heparinized capillary tubes under light ether anesthesia. Serum IGF-I measurement was done by radioimmunoassay at day 7.

For “acaaagatccatacctgaga (eA*e[5mC]*eA*eA*eA*dG*dA*dT*d[5mC]*d[5mC]*dA*dT*dA*d[5mC]*d[5mC]*eT*eG*eA*eG*eA; antisense) [ISIS 227446]”, the IC50 [1] was about 0.025 µM, the “effect on serum IGF-I” value ([2]; 3 mg/kg once every 2 days, day 7) was “no effect” and the “IGF-I (ng/ml) Day 7” value ([2]; 3 mg/kg sc once every 2 days (days 0, 2, 4, 6)) was 129.63 ± 33.76 ng/mL. The “% IGF-I reduction” value [2] was 45%, the “% IGF-I reduction” value ([2]; listed as ASO) was 44.51% and the “serum IGF-1, % of the control (saline) group” value ([2]; 30 mg/kg sc every second day for one week) was 55%. For the same substance, the “IGF-I (ng/ml) Day 7” value ([2]; 30 mg/kg sc once every 2 days (days 0, 2, 4, 6)) was 56.95 ± 10.34 ng/mL, the “IGF-I (ng/ml) Day −2” value ([2]; pre-treatment value of the group given 3 mg/kg sc once every 2 days) was 216.23 ± 78.14 ng/mL and the “IGF-I (ng/ml) Day −2” value ([2]; pre-treatment value of the group given 30 mg/kg sc once every 2 days) was 181.84 ± 71.32 ng/mL. For the same substance, the “reduction of serum IGF-I relative to saline control” value (serum IGF-I) was 33% and the “reduction of serum IGF-I relative to the unrelated control” value (serum IGF-I) was 20%.
